Experimental data from patent US9650395B2, “Antibacterial compounds and methods for use” (PTC Therapeutics, Inc., priority 2011, dated 2017).
In brackets after ≈: the same amount, converted by molar mass. Where two headings read alike, the source gives them in different places.

What was measured:
[1] = system: super sensitive Gram-negative Escherichia coli (E. coli) BAS849; experiment: Antibacterial activity, microbroth dilution MIC, E. coli BAS849; format: cell-based; details: Escherichia coli, read-out: MIC, BAS849
[2] = system: control Gram-negative E. coli 25922 strain; experiment: Antibacterial activity, microbroth dilution MIC, E. coli 25922; format: cell-based, Escherichia coli; details: Escherichia coli, read-out: MIC, 25922
[3] = system: Gram-positive Staphylococcus aureus (S. aureus) 29213; experiment: Antibacterial activity, microbroth dilution MIC, S. aureus 29213; format: cell-based; details: Staphylococcus aureus, read-out: MIC, 29213
[4] = system: quinolone resistant E. coli LZ3111; experiment: Antibacterial activity, MIC, quinolone resistant E. coli LZ3111; format: cell-based, Escherichia coli; details: Escherichia coli, read-out: MIC, LZ3111
Source text: The antibacterial activity from a microbroth dilution method may be presented as the minimum inhibitory concentration (MIC in […]). The MIC value is the lowest concentration of a drug which prevents macroscopically visible bacterial growth under test conditions.
Mutations in these regions are known to confer a high level resistance to the quinolone class of antibiotics.

[5] = E. coli BAS849, microbroth dilution
[6] = E. coli 25922, microbroth dilution
[7] = S. aureus 29213, microbroth dilution

Structure (SMILES)	MIC [1, 5]	MIC [2]	MIC [3]	MIC [4]	MIC [2, 6]	MIC [3, 7]	MIC [1]
CCc1cc(C(=O)O)c(=O)[nH]c1-c1ccc(N2CC3NC3C2)cc1 (stereo not shown) [Cpd 209, 6-[4-(3,6-diazabicyclo[3.1.0]hex-3-yl)phenyl]-5-ethyl-2-oxo-1,2-dihydropyridine-3-carboxylic acid]	3.5 to 12.5 µg/mL (≈ 10.8 to 38.4 µM)	12.5 to 150 µg/mL (≈ 38.4 to 461 µM)	12.5 to 150 µg/mL (≈ 38.4 to 461 µM)	12.5 to 150 µg/mL (≈ 38.4 to 461 µM)	–	–	–
CCc1cc(C(=O)O)c(=O)[nH]c1-c1ccc(N2CCC(N3CCCC3)C2)cc1 (stereo not shown) [Cpd 175, 6-[4-(1,3′-bipyrrolidin-1′-yl)phenyl]-5-ethyl-2-oxo-1,2-dihydropyridine-3-carboxylic acid]	< 1 µg/mL	–	–	12.5 to 150 µg/mL (≈ 32.8 to 393 µM)	1 to 3.5 µg/mL (≈ 2.62 to 9.17 µM)	12.5 to 150 µg/mL (≈ 32.8 to 393 µM)	–
CCc1c(-c2ccc(N3CCC(N)CC3)cc2)[nH]c(=O)c(C(=O)O)c1O [Cpd 284, 6-[4-(4-aminopiperidin-1-yl)phenyl]-5-ethyl-4-hydroxy-2-oxo-1,2-dihydropyridine-3-carboxylic acid]	3.5 to 12.5 µg/mL (≈ 9.79 to 35 µM)	–	–	12.5 to 150 µg/mL (≈ 35 to 420 µM)	12.5 to 150 µg/mL (≈ 35 to 420 µM)	12.5 to 150 µg/mL (≈ 35 to 420 µM)	–
CCc1cc(C(=O)O)c(=O)[nH]c1-c1ccc(N2C[C@H]3CCC[C@@H](N(Cc4ccccc4)Cc4ccccc4)[C@H]3C2)cc1.O=C(O)C(F)(F)F [Cpd 196, 6-{4-[(3aR,4R,7aS)-4-(dibenzylamino)octahydro-2H-isoindol-2-yl]phenyl}-5-ethyl-2-oxo-1,2-dihydropyridine-3-carboxylic acid trifluoroacetate]	–	–	–	12.5 to 150 µg/mL	12.5 to 150 µg/mL	12.5 to 150 µg/mL	12.5 to 150 µg/mL
CCc1cc(C(=O)O)c(=O)[nH]c1-c1ccc(N2C(=O)CCC2C)cc1 (stereo not shown) [Cpd 116, 5-ethyl-6-[4-(2-methyl-5-oxopyrrolidin-1-yl)phenyl]-2-oxo-1,2-dihydropyridine-3-carboxylic acid]	12.5 to 150 µg/mL (≈ 36.7 to 441 µM)	–	–	12.5 to 150 µg/mL (≈ 36.7 to 441 µM)	12.5 to 150 µg/mL (≈ 36.7 to 441 µM)	12.5 to 150 µg/mL (≈ 36.7 to 441 µM)	–
CCc1cc(C(=O)O)c(=O)[nH]c1-c1ccc(N2CCC(CNCc3ccncc3)C2)cc1 (stereo not shown) [Cpd 242, 5-ethyl-2-oxo-6-[4-(3-{[(pyridin-4-ylmethyl)amino]methyl}pyrrolidin-1-yl)phenyl]-1,2-dihydropyridine-3-carboxylic acid]	< 1 µg/mL	–	–	12.5 to 150 µg/mL (≈ 28.9 to 347 µM)	1 to 3.5 µg/mL (≈ 2.31 to 8.09 µM)	12.5 to 150 µg/mL (≈ 28.9 to 347 µM)	–
CCc1c(-c2ccc(N3CCC(CN(C)Cc4ccccc4)C3)cc2)[nH]c(=O)c(C(=O)O)c1O (stereo not shown) [Cpd 255, 6-[4-(3-{[benzyl(methyl)amino]methyl}pyrrolidin-1-yl)phenyl]-5-ethyl-4-hydroxy-2-oxo-1,2-dihydropyridine-3-carboxylic acid]	3.5 to 12.5 µg/mL (≈ 7.58 to 27.1 µM)	–	–	12.5 to 150 µg/mL (≈ 27.1 to 325 µM)	12.5 to 150 µg/mL (≈ 27.1 to 325 µM)	3.5 to 12.5 µg/mL (≈ 7.58 to 27.1 µM)	–
CCc1c(-c2ccc(N3CCC(OCc4ccccc4)CC3)cc2)[nH]c(=O)c(C(=O)O)c1O [Cpd 281, 6-{4-[4-(benzyloxy)piperidin-1-yl]phenyl}-5-ethyl-4-hydroxy-2-oxo-1,2-dihydropyridine-3-carboxylic acid]	3.5 to 12.5 µg/mL (≈ 7.8 to 27.9 µM)	–	–	12.5 to 150 µg/mL (≈ 27.9 to 334 µM)	12.5 to 150 µg/mL (≈ 27.9 to 334 µM)	12.5 to 150 µg/mL (≈ 27.9 to 334 µM)	–
CCc1cc(C(=O)O)c(=O)[nH]c1-c1ccc(N2CCCCC2)c(OC)c1 [Cpd 68, 5-ethyl-6-[3-methoxy-4-(piperidin-1-yl)phenyl]-2-oxo-1,2-dihydropyridine-3-carboxylic acid]	12.5 to 150 µg/mL (≈ 35.1 to 421 µM)	–	–	12.5 to 150 µg/mL (≈ 35.1 to 421 µM)	12.5 to 150 µg/mL (≈ 35.1 to 421 µM)	12.5 to 150 µg/mL (≈ 35.1 to 421 µM)	–
CCc1cc(C(=O)O)c(=O)[nH]c1-c1ccc(N2CCC(CNCc3ccccc3F)C2)cc1 (stereo not shown) [Cpd 240, 5-ethyl-6-[4-(3-{[(2-fluorobenzyl)amino]methyl}pyrrolidin-1-yl)phenyl]-2-oxo-1,2-dihydropyridine-3-carboxylic acid]	< 1 µg/mL	–	–	12.5 to 150 µg/mL (≈ 27.8 to 334 µM)	1 to 3.5 µg/mL (≈ 2.22 to 7.79 µM)	12.5 to 150 µg/mL (≈ 27.8 to 334 µM)	–
CCc1cc(C(=O)O)c(=O)[nH]c1-c1ccc(N2C[C@H]3CCN[C@H]3C2)cc1.O=C(O)C(F)(F)F [Cpd 190, 5-ethyl-6-{4-[(3aR,6aR)-hexahydropyrrolo[3,4-b]pyrrol-5(1H)-yl]phenyl}-2-oxo-1,2-dihydropyridine-3-carboxylic acid trifluoroacetate]	–	–	–	12.5 to 150 µg/mL	12.5 to 150 µg/mL	12.5 to 150 µg/mL	1 to 3.5 µg/mL
CCc1cc(C(=O)O)c(=O)[nH]c1-c1ccc(N2CCC(N)CC2)cc1 [Cpd 228, 6-[4-(4-aminopiperidin-1-yl)phenyl]-5-ethyl-2-oxo-1,2-dihydropyridine-3-carboxylic acid]	12.5 to 150 µg/mL (≈ 36.6 to 439 µM)	–	–	12.5 to 150 µg/mL (≈ 36.6 to 439 µM)	12.5 to 150 µg/mL (≈ 36.6 to 439 µM)	12.5 to 150 µg/mL (≈ 36.6 to 439 µM)	–
CCc1c(-c2c(OC)cc(OC)cc2OC)[nH]c(=O)c(C(=O)O)c1O [Cpd 41, 5-ethyl-4-hydroxy-2-oxo-6-(2,4,6-trimethoxyphenyl)-1,2-dihydropyridine-3-carboxylic acid]	12.5 to 150 µg/mL (≈ 35.8 to 429 µM)	–	–	12.5 to 150 µg/mL (≈ 35.8 to 429 µM)	12.5 to 150 µg/mL (≈ 35.8 to 429 µM)	12.5 to 150 µg/mL (≈ 35.8 to 429 µM)	–
CCc1cc(C(=O)O)c(=O)[nH]c1-c1ccc(N2CCC(CNCc3ccc(Cl)cc3)C2)cc1 (stereo not shown) [Cpd 237, 6-[4-(3-{[(4-chlorobenzyl)amino]methyl}pyrrolidin-1-yl)phenyl]-5-ethyl-2-oxo-1,2-dihydropyridine-3-carboxylic acid]	< 1 µg/mL	–	–	12.5 to 150 µg/mL (≈ 26.8 to 322 µM)	< 1 µg/mL	3.5 to 12.5 µg/mL (≈ 7.51 to 26.8 µM)	–
CCc1cc(C(=O)O)c(=O)[nH]c1-c1ccc(N2CC(n3nnc(C)n3)C2)cc1 [Cpd 168, 5-ethyl-6-{4-[3-(5-methyl-2H-tetrazol-2-yl)azetidin-1-yl]phenyl}-2-oxo-1,2-dihydropyridine-3-carboxylic acid]	< 1 µg/mL	–	–	12.5 to 150 µg/mL (≈ 32.9 to 394 µM)	12.5 to 150 µg/mL (≈ 32.9 to 394 µM)	12.5 to 150 µg/mL (≈ 32.9 to 394 µM)	–
CCc1c(-c2ccc(N3CC4=CCCC[C@@H]4C3)cc2)[nH]c(=O)c(C(=O)O)c1O.Cl [Cpd 297, 5-ethyl-6-{4-[(3aS)-1,3,3a,4,5,6-hexahydro-2H-isoindol-2-yl]phenyl}-4-hydroxy-2-oxo-1,2-dihydropyridine-3-carboxylic acid hydrochloride]	< 1 µg/mL	–	–	12.5 to 150 µg/mL	12.5 to 150 µg/mL	3.5 to 12.5 µg/mL	–
CCc1cc(C(=O)O)c(=O)[nH]c1-c1ccc(N2CCC(CNCc3cccnc3)C2)cc1 (stereo not shown) [Cpd 241, 5-ethyl-2-oxo-6-[4-(3-{[(pyridin-3-ylmethyl)amino]methyl}pyrrolidin-1-yl)phenyl]-1,2-dihydropyridine-3-carboxylic acid]	< 1 µg/mL	–	–	12.5 to 150 µg/mL (≈ 28.9 to 347 µM)	< 1 µg/mL	12.5 to 150 µg/mL (≈ 28.9 to 347 µM)	–
CCc1cc(C(=O)O)c(=O)[nH]c1-c1ccc(N2C[C@H]3CC[C@@H](N(C)C)[C@H]3C2)cc1.Cl [Cpd 198, 6-{4-[(3aR,4R,6aS)-4-(dimethylamino)hexahydrocyclopenta[c]pyrrol-2(1H)-yl]phenyl}-5-ethyl-2-oxo-1,2-dihydropyridine-3-carboxylic acid hydrochloride]	< 1 µg/mL	–	–	12.5 to 150 µg/mL	3.5 to 12.5 µg/mL	12.5 to 150 µg/mL	–
CCc1c(-c2ccc(N3C[C@H]4C[C@@H](NCc5ccccc5)C[C@H]4C3)cc2)[nH]c(=O)c(C(=O)O)c1O [Cpd 250, 6-{4-[(3aR,5r,6aS)-5-(benzylamino)hexahydrocyclopenta[c]pyrrol-2(1H)-yl]phenyl}-5-ethyl-4-hydroxy-2-oxo-1,2-dihydropyridine-3-carboxylic acid]	3.5 to 12.5 µg/mL (≈ 7.39 to 26.4 µM)	–	–	12.5 to 150 µg/mL (≈ 26.4 to 317 µM)	12.5 to 150 µg/mL (≈ 26.4 to 317 µM)	12.5 to 150 µg/mL (≈ 26.4 to 317 µM)	–
CCc1cc(C(=O)O)c(=O)[nH]c1-c1ccc(N2CC(N)C3(CC3)C2)cc1.O=C(O)C(F)(F)F (stereo not shown) [Cpd 214, 6-[4-(7-amino-5-azaspiro[2.4]hept-5-yl)phenyl]-5-ethyl-2-oxo-1,2-dihydropyridine-3-carboxylic acid trifluoroacetate]	–	–	–	12.5 to 150 µg/mL	12.5 to 150 µg/mL	12.5 to 150 µg/mL	1 to 3.5 µg/mL
CCc1cc(C(=O)O)c(=O)[nH]c1-c1ccc(N2CCC(CN)C2)cc1.O=C(O)C(F)(F)F (stereo not shown) [Cpd 188, 6-{4-[3-(aminomethyl)pyrrolidin-1-yl]phenyl}-5-ethyl-2-oxo-1,2-dihydropyridine-3-carboxylic acid trifluoroacetate]	–	–	–	12.5 to 150 µg/mL	3.5 to 12.5 µg/mL	12.5 to 150 µg/mL	< 1 µg/mL
CCc1c(-c2ccc(N(C)C)cc2F)[nH]c(=O)c(C(=O)O)c1O [Cpd 55, 6-[4-(dimethylamino)-2-fluorophenyl]-5-ethyl-4-hydroxy-2-oxo-1,2-dihydropyridine-3-carboxylic acid]	< 1 µg/mL	–	–	12.5 to 150 µg/mL (≈ 39 to 468 µM)	12.5 to 150 µg/mL (≈ 39 to 468 µM)	3.5 to 12.5 µg/mL (≈ 10.9 to 39 µM)	–
CCc1cc(C(=O)O)c(=O)[nH]c1-c1ccc(N2CCC(CNCc3ccccn3)C2)cc1 (stereo not shown) [Cpd 243, 5-ethyl-2-oxo-6-[4-(3-{[(pyridin-2-ylmethyl)amino]methyl}pyrrolidin-1-yl)phenyl]-1,2-dihydropyridine-3-carboxylic acid]	< 1 µg/mL	–	–	12.5 to 150 µg/mL (≈ 28.9 to 347 µM)	1 to 3.5 µg/mL (≈ 2.31 to 8.09 µM)	12.5 to 150 µg/mL (≈ 28.9 to 347 µM)	–
CCc1cc(C(=O)O)c(=O)[nH]c1-c1ccc(N2CCC(CNCc3cccc(Cl)c3)C2)cc1 (stereo not shown) [Cpd 236, 6-[4-(3-{[(3-chlorobenzyl)amino]methyl}pyrrolidin-1-yl)phenyl]-5-ethyl-2-oxo-1,2-dihydropyridine-3-carboxylic acid]	< 1 µg/mL	–	–	12.5 to 150 µg/mL (≈ 26.8 to 322 µM)	1 to 3.5 µg/mL (≈ 2.15 to 7.51 µM)	3.5 to 12.5 µg/mL (≈ 7.51 to 26.8 µM)	–
CCc1cc(C(=O)O)c(=O)[nH]c1-c1ccc(N2C[C@H]3CNC[C@H]3C2)cc1.Cl [Cpd 207, 5-ethyl-6-{4-[(3aR,6aS)-hexahydropyrrolo[3,4-c]pyrrol-2(1H)-yl]phenyl}-2-oxo-1,2-dihydropyridine-3-carboxylic acid hydrochloride]	3.5 to 12.5 µg/mL	–	–	12.5 to 150 µg/mL	12.5 to 150 µg/mL	12.5 to 150 µg/mL	–
